{"source": "patent US9062050B2", "about": "“Inhibitor of JAK1 and JAK2” (Eli Lilly and Company, priority 2012, dated 2015)", "target": "T1, JAK3 (Homo sapiens, UniProt P52333)", "T1 sequence (P52333 1-1124)": "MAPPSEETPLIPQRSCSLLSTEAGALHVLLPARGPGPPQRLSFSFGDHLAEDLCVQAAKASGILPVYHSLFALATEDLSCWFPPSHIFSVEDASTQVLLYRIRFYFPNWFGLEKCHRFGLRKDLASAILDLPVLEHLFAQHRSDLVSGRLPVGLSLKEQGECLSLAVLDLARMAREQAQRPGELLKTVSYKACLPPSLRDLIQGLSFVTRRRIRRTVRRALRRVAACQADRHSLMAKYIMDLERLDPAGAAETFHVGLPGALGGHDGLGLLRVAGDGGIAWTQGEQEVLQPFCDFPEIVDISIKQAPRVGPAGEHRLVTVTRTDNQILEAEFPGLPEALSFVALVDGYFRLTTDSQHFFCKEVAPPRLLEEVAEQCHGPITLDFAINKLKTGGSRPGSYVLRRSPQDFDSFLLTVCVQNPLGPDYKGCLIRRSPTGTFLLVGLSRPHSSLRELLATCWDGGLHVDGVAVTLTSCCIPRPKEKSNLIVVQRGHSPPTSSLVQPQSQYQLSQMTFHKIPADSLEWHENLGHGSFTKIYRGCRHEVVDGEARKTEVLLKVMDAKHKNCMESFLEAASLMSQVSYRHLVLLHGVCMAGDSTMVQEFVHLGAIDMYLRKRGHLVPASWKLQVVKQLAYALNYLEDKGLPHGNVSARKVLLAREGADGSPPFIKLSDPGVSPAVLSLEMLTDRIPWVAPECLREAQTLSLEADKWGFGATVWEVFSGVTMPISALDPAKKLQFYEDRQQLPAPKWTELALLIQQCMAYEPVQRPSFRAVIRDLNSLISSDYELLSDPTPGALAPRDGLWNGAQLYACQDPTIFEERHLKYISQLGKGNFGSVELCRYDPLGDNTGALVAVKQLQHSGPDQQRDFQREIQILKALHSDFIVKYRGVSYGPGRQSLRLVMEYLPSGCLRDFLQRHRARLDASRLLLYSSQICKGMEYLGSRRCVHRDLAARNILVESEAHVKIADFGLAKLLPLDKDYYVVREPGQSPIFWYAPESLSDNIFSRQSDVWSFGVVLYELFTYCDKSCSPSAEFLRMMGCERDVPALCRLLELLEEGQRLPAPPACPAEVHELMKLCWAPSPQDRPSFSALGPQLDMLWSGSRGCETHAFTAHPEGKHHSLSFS", "experiment": "JAK3 IL-2-NK-92/pSTAT5 cell-based assay (Cellomics ArrayScan HCS)", "parameters": "host or cells: NK-92 (natural killer) cells", "from_the_text": "IL-2 activates the JAK3 pathway in natural killer (NK) cells to drive the NK and CD8 lymphocyte proliferation. Therefore, IL-2 stimulated NK92/pSTAT5 cell-based assay enables the evaluation of the JAK3 cellular activity of JAK compounds in vitro.\nNK-92 (natural killer) cells (ATCC, Manassas, Va.) are maintained in minimum essential medium (MEM) Alpha with 15% fetal bovine serum, 15% Horse Serum and 1× antibiotic/antimycotic (Invitrogen, Carlsbad, Calif.). The medium is supplemented with IL-2 (R&D systems, Minneapolis, Minn.) for a final concentration of 4 ng/mL. Cells are kept at 37° C. with 5% CO2. Cells are starved in serum free medium to remove endogenous growth factors. NK-92 cells are counted and collected to seed 2×10^7 cells per 96-well plate at a density of 2×10^5 cells per well. The cells are rinsed twice with unsupplemented MEM Alpha (MEM Alpha) before suspending cells at a final concentration of 8×10^5 cells/mL in MEM Alpha with 0.6% serum (0.3% FBS, 0.3% horse serum). The diluted cells are added back to tissue culture flasks and incubated overnight at 37° C. Test compound is prepared in 100% DMSO at 10 mM concentration. […] An aliquot of 200 μL of 1 to 10 dilution of Mouse anti-pSTAT5 (pY694) Alexa Fluor 647® in fluorescence activated cell sorting (FACS) buffer is added to the cells. […] Mean fluorescent intensity data are collected and analyzed using Cellomics Arrayscan® VTi. […]", "data": [{"compound": "Cc1cc(Nc2ccc3ncn([C@@H]4CCc5ccc(F)cc54)c3n2)[nH]n1.Cl.Cl", "note": "[Example 1, 3-[(1R)-6-fluoro-2,3-dihydro-1H-inden-1-yl]-N-(3-methyl-1H-pyrazol-5-yl)-3H-imidazo[4,5-b]pyridin-5-amine dihydrochloride]", "values": [{"measurement": "IC50", "setting": "NK-92 cells, IL-2 at 0.5 ng/mL, relative IC50, n=61, read-out: IC50, inhibits JAK3 (pSTAT5)", "value": 228, "unit": "nM"}, {"measurement": "ratio of JAK3/JAK2 IC50", "setting": "from the two cell-based assays (EPO-TF1/pSTAT5 and IL-2-NK-92/pSTAT5)", "value": "more than six-fold"}]}]}
